We go through one compound from patent US20220110934A1, “PHARMACEUTICAL COMPOSITION” (Ricoh Company, Ltd., priority 2019, published 2022).

A short description of this data set: Dissolution test in physiological saline (Test Example 1, FIG. 11). Type of data set: physicochemical. Conditions: 6 mg/mL as nintedanib in 100 mL physiological saline, 20° C., stirring. The method, then:
The pharmaceutical composition (i) or the nintedanib ethanesulfonate (obtained from LC laboratories) was added to 100 mL of physiological saline so that the amount of nintedanib would be 6 mg/mL. The resultant mixture was subjected to a dissolution test at a liquid temperature of 20° C. under stirring with a stirrer.
FIG. 11 is a graph presenting the concentrations of nintedanib in the solutions measured over time.

As for `COC(=O)c1ccc2c(c1)NC(=O)/C2=C(\Nc1ccc(N(C)C(=O)CN2CCN(C)CC2)cc1)c1ccccc1` [nintedanib ethanesulfonate, Nintedanib ethanesulfonate], the “course of solubility (concentration of nintedanib in solution) over time” value is “solubility decreased over time and sedimentation of insoluble matter was observed”.
